Assay: Determination of salt-forming ratios of pilocarpine salt formulations (HPLC)
Assay type: physicochemical
Conditions: for salt-forming ratios of the formulations: different conditions
Description: The determination of the salt-forming ratios of the pilocarpine salt formulations was performed using high-performance liquid chromatography with the following conditions: chromatographic column: C18 column; sample injection volume: 10 μL; mobile phase: K2HPO4 (adjusted to pH 6.50±0.1 with phosphoric acid)-methanol-acetonitrile (63:2:35); flow rate: 0.7 mL/min; column temperature: 30° C.; detection wavelength: 215 nm; […] determination was performed, and the salt-forming ratios were calculated according to the peak areas of free acid radicals and pilocarpine.
(§1) The samples were separately injected to determine the salt-forming ratios of different compound 1 formulations. Meanwhile, the salt-forming ratios of the compound 1 formulation solutions with different pH values under different conditions were determined using the above stability examination methods.
as §1, with “2” for “1”

[1] = formulation pH 4.8, 40° C./10 d
[2] = formulation pH 4.8, 60° C./10 d
[3] = formulation pH 4.8, Light irradiation/5 d
[4] = formulation pH 4.8, Light irradiation/10 d

In the case of `CC[C@@H]1C(=O)OC[C@@H]1Cc1cncn1C` [Compound 1], the “salt-forming ratios of the formulations” value is reported as “substantially stable”, the Salt-forming ratio (formulation pH 3.6, 0 d) is reported as 1.19 and the Salt-forming ratio (formulation pH 3.6, 40° C./5 d) is reported as 1.08. The Salt-forming ratio (formulation pH 3.6, 40° C./10 d) was 1.09, the Salt-forming ratio (formulation pH 3.6, 60° C./5 d) was 1.15 and the Salt-forming ratio (formulation pH 3.6, 60° C./10 d) was 1.24. For the same compound, the Salt-forming ratio (formulation pH 3.6, Light irradiation/5 d) was 1.06, the Salt-forming ratio (formulation pH 3.6, Light irradiation/10 d) was 1.06 and the Salt-forming ratio (formulation pH 4.1, 0 d) was 1.03. It also gave a Salt-forming ratio (formulation pH 4.1, 40° C./5 d) of 1.06, a Salt-forming ratio (formulation pH 4.1, 40° C./10 d) of 1.06 and a Salt-forming ratio (formulation pH 4.1, 60° C./5 d) of 1.09. The Salt-forming ratio (formulation pH 4.1, 60° C./10 d) was 1.10, the Salt-forming ratio (formulation pH 4.1, Light irradiation/5 d) was 1.04 and the Salt-forming ratio (formulation pH 4.1, Light irradiation/10 d) was 1.04. The Salt-forming ratio (formulation pH 4.7, 0 d) was 1.03, the Salt-forming ratio (formulation pH 4.7, 40° C./5 d) was 1.04 and the Salt-forming ratio (formulation pH 4.7, 40° C./10 d) was 1.02. The Salt-forming ratio (formulation pH 4.7, 60° C./5 d) was 1.02, the Salt-forming ratio (formulation pH 4.7, 60° C./10 d) was 1.00 and the Salt-forming ratio (formulation pH 4.7, Light irradiation/5 d) was 1.03. It also gave a Salt-forming ratio (formulation pH 4.7, Light irradiation/10 d) of 1.03, a Salt-forming ratio (formulation pH 4.8, 0 d) of 1.02 and a Salt-forming ratio (formulation pH 4.8, 40° C./5 d) of 1.04. It also gave a Salt-forming ratio [1] of 1.02, a Salt-forming ratio (formulation pH 4.8, 60° C./5 d) of 0.99 and a Salt-forming ratio [2] of 0.97. It also gave a Salt-forming ratio [3] of 1.03, a Salt-forming ratio [4] of 1.02 and a Salt-forming ratio (formulation pH 5.1, 0 d) of 1.02. It also gave a Salt-forming ratio (formulation pH 5.1, 40° C./5 d) of 1.03, a Salt-forming ratio (formulation pH 5.1, 40° C./10 d) of 1.01 and a Salt-forming ratio (formulation pH 5.1, 60° C./5 d) of 0.97. For the same compound, the Salt-forming ratio (formulation pH 5.1, 60° C./10 d) was 0.92, the Salt-forming ratio (formulation pH 5.1, Light irradiation/5 d) was 1.03 and the Salt-forming ratio (formulation pH 5.1, Light irradiation/10 d) was 1.02. It also gave a Salt-forming ratio (formulation pH 5.6, 0 d) of 1.02, a Salt-forming ratio (formulation pH 5.6, 40° C./5 d) of 1.01 and a Salt-forming ratio (formulation pH 5.6, 40° C./10 d) of 0.98. For the same compound, the Salt-forming ratio (formulation pH 5.6, 60° C./5 d) was 0.91, the Salt-forming ratio (formulation pH 5.6, 60° C./10 d) was 0.85 and the Salt-forming ratio (formulation pH 5.6, Light irradiation/5 d) was 1.02. The Salt-forming ratio (formulation pH 5.6, Light irradiation/10 d) was 1.01.
For `CC[C@@H]1C(=O)OC[C@@H]1Cc1cncn1C` [Compound 2], the “salt-forming ratios of the formulations” value was “substantially stable”, the Salt-forming ratio (formulation pH 4.3, 0 d) was 1.25 and the Salt-forming ratio (formulation pH 4.3, 40° C./5 d) was 1.14. It also gave a Salt-forming ratio (formulation pH 4.3, 40° C./10 d) of 1.15, a Salt-forming ratio (formulation pH 4.3, 60° C./5 d) of 1.17 and a Salt-forming ratio (formulation pH 4.3, 60° C./10 d) of 1.23. For the same compound, the Salt-forming ratio (formulation pH 4.3, Light irradiation/5 d) was 1.12, the Salt-forming ratio (formulation pH 4.3, Light irradiation/10 d) was 1.13 and the Salt-forming ratio (formulation pH 4.5, 0 d) was 1.00. For the same compound, the Salt-forming ratio (formulation pH 4.5, 40° C./5 d) was 1.02, the Salt-forming ratio (formulation pH 4.5, 40° C./10 d) was 1.01 and the Salt-forming ratio (formulation pH 4.5, 60° C./5 d) was 1.02. For the same compound, the Salt-forming ratio (formulation pH 4.5, 60° C./10 d) was 1.01, the Salt-forming ratio (formulation pH 4.5, Light irradiation/5 d) was 1.01 and the Salt-forming ratio (formulation pH 4.5, Light irradiation/10 d) was 1.01. For the same compound, the Salt-forming ratio (formulation pH 4.8, 0 d) was 1.00, the Salt-forming ratio (formulation pH 4.8, 40° C./5 d) was 1.01 and the Salt-forming ratio [1] was 1.00. For the same compound, the Salt-forming ratio (formulation pH 4.8, 60° C./5 d) was 0.98, the Salt-forming ratio [2] was 0.96 and the Salt-forming ratio [3] was 1.01. It also gave a Salt-forming ratio [4] of 1.01, a Salt-forming ratio (formulation pH 5.0, 0 d) of 1.00 and a Salt-forming ratio (formulation pH 5.0, 40° C./5 d) of 1.00. For the same compound, the Salt-forming ratio (formulation pH 5.0, 40° C./10 d) was 0.99, the Salt-forming ratio (formulation pH 5.0, 60° C./5 d) was 0.95 and the Salt-forming ratio (formulation pH 5.0, 60° C./10 d) was 0.92. It also gave a Salt-forming ratio (formulation pH 5.0, Light irradiation/5 d) of 1.00, a Salt-forming ratio (formulation pH 5.0, Light irradiation/10 d) of 1.00 and a Salt-forming ratio (formulation pH 5.5, 0 d) of 0.99. It also gave a Salt-forming ratio (formulation pH 5.5, 40° C./5 d) of 0.98, a Salt-forming ratio (formulation pH 5.5, 40° C./10 d) of 0.97 and a Salt-forming ratio (formulation pH 5.5, 60° C./5 d) of 0.90. For the same compound, the Salt-forming ratio (formulation pH 5.5, 60° C./10 d) was 0.85, the Salt-forming ratio (formulation pH 5.5, Light irradiation/5 d) was 1.00 and the Salt-forming ratio (formulation pH 5.5, Light irradiation/10 d) was 1.00.
